Molecular target: T1, hROMK (hKir1.1) (Homo sapiens, UniProt P48048)
T1 construct: expressed in transfected cells
T1 sequence (P48048 1-391): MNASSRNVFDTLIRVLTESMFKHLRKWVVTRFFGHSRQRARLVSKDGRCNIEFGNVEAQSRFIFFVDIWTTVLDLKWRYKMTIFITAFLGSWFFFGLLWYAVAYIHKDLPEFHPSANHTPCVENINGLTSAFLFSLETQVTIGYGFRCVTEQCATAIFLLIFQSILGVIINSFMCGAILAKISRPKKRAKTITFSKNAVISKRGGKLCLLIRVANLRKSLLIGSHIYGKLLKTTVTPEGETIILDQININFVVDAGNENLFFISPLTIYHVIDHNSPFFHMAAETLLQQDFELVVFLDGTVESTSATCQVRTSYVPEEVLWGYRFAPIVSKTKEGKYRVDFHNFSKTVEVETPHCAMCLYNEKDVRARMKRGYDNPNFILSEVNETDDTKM
Test: Thallium Flux Assay (ROMK channel functional thallium flux, FLIPR-Tetra)
Assay type: cell-based
Details: HEK293 cells stably expressing hROMK (hKir1.1); 30 min compound incubation
Experimental: The following Thallium Flux Assay was performed on each of the final product compounds in the Examples.
Cell Culture Conditions—HEK293 cells stably expressing hROMK (hKir1.1) were grown at 37° C. in a 10% CO2 humidified incubator in complete growth media: Dulbecco's Modified Eagle Medium supplemented with non-essential amino acids, Penicillin/Streptomycin/Glutamine, G418 and FBS. At >80% confluency, aspirate the media from the flask and rinse with 10 mL Calcium/Magnesium-free PBS. Add 5 mL of 1× trypsin (prepared in Ca/Mg Free PBS) to T-225 flask and return flask to 37° C./CO2 incubator for 2-3 minutes. To dislodge the cell, gently bang the side of the flask with your hand. Triturate the cells completely and then transfer the cells to 25 mL complete media. Centrifuge at 1,500 rpm for 6 min followed by resuspension in complete growth media and determine cell concentration. For typical re-seeding, 4E6 cells/T-225 flask will attain >80% confluency in 4 days. Under ideal growth conditions and appropriate tissue culture practices, this cell line is stable for 40-45 passages. FluxOR Kit Components (Invitrogen F10017) • FluxOR™ Reagent (Component A) • FluxOR™ Assay Buffer (Component B)—10× Concentrate • PowerLoad™ Concentrate (Component C)—100× Concentrate • Probenecid (Component D)—Lyophilized sample is kept at −20° C. Water soluble, 100× after solubilization in 1 mL water. Store at 4° C. • FluxOR™ Chloride-free Buffer (Component E)—5× Concentrate • Potassium sulfate (K2SO4) Concentrate (Component F)—125 mM in water. Store at 4° C. • Thallium sulfate (Tl2SO4) Concentrate (Component G)—50 mM in water. Store at 4° C. • DMSO (dimethyl sulfoxide, Component H)—1 mL (100%) Reagent Preparation: FluxOR Working Solutions • 1000× FluxOR™ Reagent: Reconstitute a vial of component A in 100 μl DMSO; Mix well; Store 10 μl aliquots at −20° C. • 1× FluxOR™ Assay Buffer: Dilute Component B 10-fold with water; Adjust pH to 7.4 with Hepes/NaOH; Filter and store at 4° C. • Probenecid/Assay Buffer: 100 mL of 1× FluxOR™ Assay Buffer; 1 mL of reconstituted component D; Store at 4° C. • Loading Buffer (per microplate): 10 μl 1000× FluxOR™ Reagent; 100 μl component C; 10 mL Probenecid/Assay Buffer • Compound Buffer (per microplate): 20 mL Probenecid/Assay Buffer; 0.3 mM ouabain (10 mM ouabain in water can be stored in amber bottle/aluminum foil at room temperature); Test compound • 1× FluxOR™ Chloride-Free Buffer: Prepare 1× working solution in water. Can be stored at room temperature • Stimulant Buffer (prepared at 5× final concentration in 1× FluxOR™ Chloride-Free Buffer): 7.5 mM Thallium sulfate and 0.75 mM Potassium sulfate (to give a final assay concentration of 3 mM Thallium/0.3 mM Potassium). Store at 4° C. when not in use. If kept sterile, this solution is good for months. Assay Protocol—The ROMK channel functional thallium flux assay is performed in 384 wells, using the FLIPR-Tetra instrument. HEK-hKir1.1 cells are seeded in Poly-D-Lysine microplates and kept in a 37° C.-10% CO2 incubator overnight. On the day of the experiment, the growth media is replaced with the FluxOR™ reagent loading buffer and incubated, protected from light, at ambient temperature (23-25° C.) for 90 min. The loading buffer is replaced with assay buffer±test compound followed by 30 min incubation at ambient temperature, where the Thallium/Potassium stimulant is added to the microplate. Step Protocol • 1. Seed HEK-hKir1.1 cells (50 μl at 20,000 cells/well) in 384-well PDL coated Microplates • 2. Allow cells to adhere overnight in humidified 37° C./10% CO2 incubator • 3. Completely remove cell growth media from microplate and replace with 25 μl loading buffer • 4. Incubate Microplate at room temperature, protected form light, for 90 min • 5. Remove loading buffer and replace with 25 μl 1× Assay Buffer±test compound. • 6. Incubate microplate at room temperature, protected from light, for 30 min • 7. At FLIPR-Tetra 384: Add stimulant (Thallium/Potassium) solution to microplate and monitor fluorescence. […]

SMILES: CCC1CC2(CCN(C[C@H](O)c3cnc(-n4cnnn4)cn3)CC2)C(=O)N1C1=CC(=O)OC1 (mixture of isomers) [Example 221, 3-ethyl-8-{(2S)-2-hydroxy-2-[5-(1H-tetrazol-1-yl)pyrazin-2-yl]ethyl}-2-(5-oxo-2,5-dihydrofuran-3-yl)-2,8-diazaspiro[4.5]decan-1-one]
- IC50: 30 nM

SMILES: O=C1C=C(N2C(=O)C3(CCN(C[C@H](O)c4ccc(-n5cnnn5)cn4)CC3)CC2C2CC2)CO1 (mixture of isomers) [Example 222, 3-cyclopropyl-8-{(2S)-2-hydroxy-2-[5-(1H-tetrazol-1-yl)pyridin-2-yl]ethyl}-2-(5-oxo-2,5-dihydrofuran-3-yl)-2,8-diazaspiro[4.5]decan-1-one]
- IC50: 100 nM

SMILES: O=C1C=C(N2C(=O)C3(CCN(C[C@H](O)c4ccc(-n5cnnn5)cn4)CC3)CC2C2CC2)CO1 (mixture of isomers) [Example 223, 3-cyclopropyl-8-{(2S)-2-hydroxy-2-[5-(1H-tetrazol-1-yl)pyridin-2-yl]ethyl}-2-(5-oxo-2,5-dihydrofuran-3-yl)-2,8-diazaspiro[4.5]decan-1-one]
- IC50: 50 nM

SMILES: CC1=C(N2CC[C@]3(CCN(C[C@H](O)c4cnc(-n5cnnn5)cn4)CC3F)C2=O)COC1=O (mixture of isomers) [Example 224, 6-fluoro-8-{(2S)-2-hydroxy-2-[5-(1H-tetrazol-1-yl)pyrazin-2-yl]ethyl}-2-(4-methyl-5-oxo-2,5-dihydrofuran-3-yl)-1-oxo-2-aza-8-azoniaspiro[4.5]decane]
- IC50: 110 nM

SMILES: CC1=C(N2CC[C@@]3(CCN(C[C@H](O)c4cnc(-n5cnnn5)cn4)CC3F)C2=O)COC1=O (mixture of isomers) [Example 225, 6-fluoro-8-{(2S)-2-hydroxy-2-[5-(1H-tetrazol-1-yl)pyrazin-2-yl]ethyl}-2-(4-methyl-5-oxo-2,5-dihydrofuran-3-yl)-1-oxo-2-aza-8-azoniaspiro[4.5]decane]
- IC50: 150 nM

SMILES: CC1OC(=O)C=C1N1CCC2(CCN(C[C@H](O)c3ccc(-n4cnnn4)nc3)CC2)C1=O (mixture of isomers) [Example 226, 8-((R)-2-(6-(1H-tetrazol-1-yl)pyridin-3-yl)-2-hydroxyethyl)-2-(2-methyl-5-oxo-2,5-dihydrofuran-3-yl)-2,8-diazaspiro[4.5]decan-1-one]
- IC50: 330 nM

SMILES: CC1OC(=O)C=C1N1CCC2(CCN(C[C@H](O)c3ccc(-n4cnnn4)nc3)CC2)C1=O (mixture of isomers) [Example 227, 8-((R)-2-(6-(1H-tetrazol-1-yl)pyridin-3-yl)-2-hydroxyethyl)-2-(2-methyl-5-oxo-2,5-dihydrofuran-3-yl)-2,8-diazaspiro[4.5]decan-1-one]
- IC50: 180 nM

SMILES: CC1=C(N2C(=O)C3(CCN(CCc4ccc(-n5cnnn5)nn4)CC3)CC2C)COC1=O (racemic) [Example 240, 3-methyl-2-(4-methyl-5-oxo-2,5-dihydrofuran-3-yl)-1-oxo-8-{2-[6-(1H-tetrazol-1-yl)pyridazin-3-yl]ethyl}-2-aza-8-azoniaspiro[4.5]decane]
- IC50: 30 nM

SMILES: CC1=C(N2C(=O)C3(CCN(CCc4ccc(-n5cnnn5)nn4)CC3)CC2C)COC1=O (racemic) [Example 241, 3-methyl-2-(4-methyl-5-oxo-2,5-dihydrofuran-3-yl)-1-oxo-8-{2-[6-(1H-tetrazol-1-yl)pyridazin-3-yl]ethyl}-2-aza-8-azoniaspiro[4.5]decane]
- IC50: 20 nM

SMILES: O=C1C=C(N2CCC3(CCN(C[C@@H](O)c4ccc(-n5cnnn5)nc4)CC3)C2=O)CO1 (single isomer, unassigned) [Example 2]
- IC50: 50 nM

SMILES: CC1=C(N2C(=O)C3(CCN(C[C@@H](O)c4ccc(-n5cnnn5)nc4)CC3)CC2C)COC1=O (single isomer, unassigned) [Example 63]
- IC50: 40 nM

SMILES: CC1=C(N2C(=O)C3(CCN(C[C@@H](O)c4ccc(-n5cnnn5)nc4)CC3)CC2C)COC1=O (single isomer, unassigned) [Example 64]
- IC50: 50 nM

SMILES: CC1=C(N2C(=O)C3(CCN(C[C@H](O)c4ccc(-n5cnnn5)nc4)CC3)CC2C)COC1=O (single isomer, unassigned) [Example 65]
- IC50: 10 nM

SMILES: CC1=C(N2C(=O)C3(CCN(C[C@H](O)c4ccc(-n5cnnn5)nc4)CC3)CC2C)COC1=O (single isomer, unassigned) [Example 66]
- IC50: 10 nM

SMILES: CC1=C(N2C(=O)C3(CCN(C[C@H](O)c4cnc(-n5cnnn5)cn4)CC3)CC2C)COC1=O (single isomer, unassigned) [Example 67]
- IC50: 170 nM

SMILES: CC1=C(N2C(=O)C3(CCN(C[C@@H](O)c4cnc(-n5cnnn5)cn4)CC3)CC2C)COC1=O (single isomer, unassigned) [Example 68]
- IC50: 230 nM

SMILES: CC1CC2(CC3CCC(C2)N3C[C@H](O)c2cnc(-n3cnnn3)cn2)C(=O)N1C1=CC(=O)OC1 (single isomer, unassigned) [Example 89]
- IC50: 30 nM

SMILES: CC1CC2(CC3CCC(C2)N3C[C@@H](O)c2cnc(-n3cnnn3)cn2)C(=O)N1C1=CC(=O)OC1 (single isomer, unassigned) [Example 90]
- IC50: 40 nM

SMILES: CC1CC2(CC3CCC(C2)N3C[C@H](O)c2cnc(-n3cnnn3)cn2)C(=O)N1C1=CC(=O)OC1 (single isomer, unassigned) [Example 91]
- IC50: 30 nM

SMILES: CC1CC2(CC3CCC(C2)N3C[C@@H](O)c2cnc(-n3cnnn3)cn2)C(=O)N1C1=CC(=O)OC1 (single isomer, unassigned) [Example 92]
- IC50: 20 nM

SMILES: CC1CC2(CC3CCC(C2)N3C[C@H](O)c2ccc(-n3cnnn3)nc2)C(=O)N1C1=CC(=O)OC1 (single isomer, unassigned) [Example 100]
- IC50: 10 nM

SMILES: CC1CC2(CC3CCC(C2)N3C[C@@H](O)c2ccc(-n3cnnn3)nc2)C(=O)N1C1=CC(=O)OC1 (single isomer, unassigned) [Example 101]
- IC50: 6 nM

SMILES: CC1CC2(CC3CCC(C2)N3C[C@H](O)c2ccc(-n3cnnn3)nc2)C(=O)N1C1=CC(=O)OC1 (single isomer, unassigned) [Example 102]
- IC50: 10 nM

SMILES: CC1CC2(CC3CCC(C2)N3C[C@@H](O)c2ccc(-n3cnnn3)nc2)C(=O)N1C1=CC(=O)OC1 (single isomer, unassigned) [Example 103]
- IC50: 10 nM

SMILES: CC1=C(N2CC(O)C3(CC4CCC(C3)N4C[C@H](O)c3ccc(-n4cnnn4)nc3)C2=O)COC1=O (single isomer, unassigned) [Example 104]
- IC50: 120 nM

SMILES: CC1=C(N2CC(O)C3(CC4CCC(C3)N4C[C@@H](O)c3ccc(-n4cnnn4)nc3)C2=O)COC1=O (single isomer, unassigned) [Example 105]
- IC50: 130 nM

SMILES: CC1=C(N2CC(O)C3(CC4CCC(C3)N4C[C@H](O)c3ccc(-n4cnnn4)nc3)C2=O)COC1=O (single isomer, unassigned) [Example 106]
- IC50: 60 nM

— patent US9765074B2, “Inhibitors of the renal outer medullary potassium channel” (Merck Sharp & Dohme Corp., priority 2013, dated 2017)
